Measurements taken from the supplement of paper PMC10307832.

How the values were obtained:
Assay in all cases: relative viability (nuclei count vs DMSO), 5 days (fraction); higher = more cells survive
Ponatinib + Palbociclib = compound: Cc1ccc(C(=O)Nc2ccc(CN3CCN(C)CC3)c(C(F)(F)F)c2)cc1C#Cc1cnc2cccnn12 [Ponatinib] + CC(=O)c1c(C)c2cnc(Nc3ccc(N4CCNCC4)cn3)nc2n(C2CCCC2)c1=O [Palbociclib] (partner 0.5 µM)
Outline: (§1)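 Cells from lung cancer lines were seeded into 1536-well plates and, one day later, dosed by pin tool. Treatments were either a single drug or a fixed dose of an anchor drug with five library-drug doses (not always all listed) in √10 steps. After 5 days, nuclei were stained in a one-step fixation (final 0.05% Triton X-100, 1% formaldehyde, 1 ug/ml Hoechst) and counted on 4× images, and relative viability is the treated-to-vehicle nuclei ratio, as the median of duplicate plates.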

Ponatinib + Linsitinib = compound: Cc1ccc(C(=O)Nc2ccc(CN3CCN(C)CC3)c(C(F)(F)F)c2)cc1C#Cc1cnc2cccnn12 [Ponatinib] + C[C@]1(O)C[C@@H](c2nc(-c3ccc4ccc(-c5ccccc5)nc4c3)c3c(N)nccn32)C1 [Linsitinib] (partner 1 µM)
Outline: as §1

Ponatinib + Dasatinib = compound: Cc1ccc(C(=O)Nc2ccc(CN3CCN(C)CC3)c(C(F)(F)F)c2)cc1C#Cc1cnc2cccnn12 [Ponatinib] + Cc1nc(Nc2ncc(C(=O)Nc3c(C)cccc3Cl)s2)cc(N2CCN(CCO)CC2)n1 [Dasatinib] (partner 0.075 µM)
Outline: as §1

Ponatinib + Navitoclax = compound: Cc1ccc(C(=O)Nc2ccc(CN3CCN(C)CC3)c(C(F)(F)F)c2)cc1C#Cc1cnc2cccnn12 [Ponatinib] + CC1(C)CCC(c2ccc(Cl)cc2)=C(CN2CCN(c3ccc(C(=O)NS(=O)(=O)c4ccc(N[C@H](CCN5CCOCC5)CSc5ccccc5)c(S(=O)(=O)C(F)(F)F)c4)cc3)CC2)C1 [Navitoclax] (partner 0.5 µM)
Outline: as §1

Ponatinib + Trametinib = compound: Cc1ccc(C(=O)Nc2ccc(CN3CCN(C)CC3)c(C(F)(F)F)c2)cc1C#Cc1cnc2cccnn12 [Ponatinib] + CC(=O)Nc1cccc(-n2c(=O)n(C3CC3)c(=O)c3c(Nc4ccc(I)cc4F)n(C)c(=O)c(C)c32)c1 [Trametinib] (partner 0.02 µM)
Outline: as §1

Cell Line	relative viability (Ponatinib + Palbociclib; first compound 0.002 µM)	relative viability (Ponatinib + Palbociclib; first compound 0.006325 µM)	relative viability (Ponatinib + Palbociclib; first compound 0.06325 µM)	relative viability (Ponatinib + Palbociclib; first compound 0.2 µM)	relative viability (Ponatinib + Linsitinib; first compound 0.002 µM)	relative viability (Ponatinib + Linsitinib; first compound 0.006325 µM)	relative viability (Ponatinib + Linsitinib; first compound 0.06325 µM)	relative viability (Ponatinib + Linsitinib; first compound 0.2 µM)	relative viability (Ponatinib + Dasatinib; first compound 0.002 µM)	relative viability (Ponatinib + Dasatinib; first compound 0.006325 µM)	relative viability (Ponatinib + Dasatinib; first compound 0.06325 µM)	relative viability (Ponatinib + Dasatinib; first compound 0.2 µM)	relative viability (Ponatinib + Navitoclax; first compound 0.002 µM)	relative viability (Ponatinib + Navitoclax; first compound 0.006325 µM)	relative viability (Ponatinib + Navitoclax; first compound 0.06325 µM)	relative viability (Ponatinib + Navitoclax; first compound 0.2 µM)	relative viability (Ponatinib + Trametinib; first compound 0.002 µM)	relative viability (Ponatinib + Trametinib; first compound 0.006325 µM)	relative viability (Ponatinib + Trametinib; first compound 0.06325 µM)	relative viability (Ponatinib + Trametinib; first compound 0.2 µM)
HCC-366	0.339	0.361	0.423	0.361	0.699	0.701	1.02	0.606	0.563	0.621	0.644	0.54	1.03	1.02	1.14	0.966	0.32	0.417	0.428	0.273
HCC-827	0.537	0.483	0.533	0.497	1.03	0.968	1.03	0.966	0.241	0.344	0.296	0.248	1.02	0.971	1.06	0.983	0.526	0.558	0.558	0.459
HOP-62	0.378	0.374	0.334	0.376	0.902	0.663	0.868	0.773	0.6	0.607	0.819	0.6	0.943	0.984	1.01	0.817	0.417	0.403	0.374	0.338
LC-2-ad	0.474	0.448	0.359	0.347	0.802	0.728	0.644	0.555	0.286	0.298	0.313	0.256	0.482	0.419	0.49	0.349	0.809	0.822	0.62	0.533
LCLC-97TM1	0.233	0.239	0.252	0.221	–	0.218	–	0.197	0.983	0.94	0.906	0.863	–	0.645	–	0.385	0.186	0.208	0.168	0.162
LK-2	0.643	0.744	0.768	0.757	0.599	0.623	0.592	0.351	–	0.268	0.196	0.158	0.619	0.825	1.04	0.64	0.787	0.666	0.746	0.587
LOU-NH91	0.587	0.531	0.528	0.549	0.995	0.966	0.977	0.942	0.541	0.581	0.548	0.525	0.679	0.753	0.779	0.655	0.803	0.807	0.886	0.764
LU99A	0.37	0.433	0.407	0.363	0.5	0.501	0.611	0.527	0.498	0.664	0.498	0.462	0.715	0.832	0.886	0.77	0.476	0.554	0.342	0.305
LXF-289	0.606	0.613	0.6	0.611	0.936	0.959	0.992	0.933	0.26	0.275	0.26	0.195	0.862	0.957	0.935	0.971	0.651	0.649	0.633	0.641
NCI-H23	0.521	0.495	0.683	0.509	0.501	0.602	0.705	0.608	0.667	0.748	0.867	0.726	0.762	0.828	0.852	0.781	0.376	0.415	0.364	0.348
NCI-H322M	0.524	0.501	0.501	0.471	0.854	0.897	1.03	0.819	0.263	0.244	0.232	0.253	1.2	1.15	1.3	0.907	0.516	0.555	0.553	0.531
NCI-H441	0.238	0.229	0.252	0.209	0.48	0.576	0.478	0.5	0.72	0.53	0.539	0.406	0.638	0.42	0.554	0.596	0.389	0.435	0.485	0.382
NCI-H460	0.218	0.212	0.223	0.177	0.74	0.795	1.1	0.744	0.45	0.536	0.584	0.462	1.04	1.05	1.24	1.06	0.192	0.128	0.268	0.1
NCI-H520	0.215	0.207	0.172	0.16	0.773	1	0.867	0.628	0.205	0.201	0.162	0.139	0.946	1.1	0.922	0.646	0.597	0.623	0.435	0.285
NCI-H647	0.358	0.345	0.47	0.438	1.22	1.01	1.05	1.1	0.159	0.171	0.211	0.117	1.04	1.07	1.21	0.935	0.399	0.5	0.458	0.296
NCI-H727	0.737	0.708	0.769	0.654	0.268	0.328	0.378	0.173	0.322	0.497	0.338	0.565	0.612	0.53	0.472	0.523	0.415	0.388	0.398	0.37

Cell Line	relative viability (Ponatinib + Palbociclib; first compound 0.002 µM)	relative viability (Ponatinib + Palbociclib; first compound 0.006325 µM)	relative viability (Ponatinib + Palbociclib; first compound 0.06325 µM)	relative viability (Ponatinib + Palbociclib; first compound 0.2 µM)	relative viability (Ponatinib + Linsitinib; first compound 0.002 µM)	relative viability (Ponatinib + Linsitinib; first compound 0.006325 µM)	relative viability (Ponatinib + Linsitinib; first compound 0.06325 µM)	relative viability (Ponatinib + Linsitinib; first compound 0.2 µM)	relative viability (Ponatinib + Dasatinib; first compound 0.002 µM)	relative viability (Ponatinib + Dasatinib; first compound 0.006325 µM)	relative viability (Ponatinib + Dasatinib; first compound 0.06325 µM)	relative viability (Ponatinib + Dasatinib; first compound 0.2 µM)	relative viability (Ponatinib + Navitoclax; first compound 0.002 µM)	relative viability (Ponatinib + Navitoclax; first compound 0.006325 µM)	relative viability (Ponatinib + Navitoclax; first compound 0.06325 µM)	relative viability (Ponatinib + Navitoclax; first compound 0.2 µM)	relative viability (Ponatinib + Trametinib; first compound 0.002 µM)	relative viability (Ponatinib + Trametinib; first compound 0.006325 µM)	relative viability (Ponatinib + Trametinib; first compound 0.06325 µM)	relative viability (Ponatinib + Trametinib; first compound 0.2 µM)
NCI-H838	0.216	0.234	0.219	0.21	0.939	1.05	1.19	0.858	0.275	0.261	0.305	0.258	1.1	1.21	1.19	0.979	0.461	0.554	0.529	0.424
NCI-H1355	0.43	0.432	0.492	0.439	0.833	0.916	1.08	0.947	0.651	0.714	0.81	0.668	0.984	1.08	1.17	1.08	0.378	0.429	0.464	0.47
NCI-H1395	0.626	0.671	0.572	0.47	–	1.05	0.915	0.832	0.392	0.404	0.427	0.393	–	1.15	1.09	0.977	0.905	1.01	0.976	0.78
NCI-H1437	0.285	0.318	0.316	0.332	0.999	1.05	1.05	0.915	0.316	0.382	0.36	0.357	1.06	1.08	1.22	1.08	0.413	0.496	0.741	0.613
NCI-H1651	0.529	0.539	0.557	0.552	0.906	0.978	1.09	0.932	0.398	0.435	0.451	0.355	1.01	1.06	1.25	1.06	0.825	0.827	0.918	0.809
NCI-H1666	0.661	0.659	0.666	0.639	0.765	0.916	1.09	0.859	0.761	0.829	0.906	0.853	0.94	1.15	1.18	0.979	0.83	0.786	0.827	0.777
NCI-H1734	0.34	0.358	0.347	0.284	0.792	0.864	1	0.754	0.496	0.469	0.42	0.377	0.805	0.828	0.877	0.739	0.63	0.658	0.527	0.505
NCI-H1755	0.419	0.44	0.413	0.369	0.984	0.949	1.05	0.986	0.453	0.388	0.362	0.385	0.962	0.947	1.02	0.803	0.755	0.841	0.761	0.763
NCI-H1792	0.605	0.66	0.655	0.62	0.525	0.591	0.572	0.521	0.726	0.795	0.886	0.542	0.609	0.648	0.582	0.624	0.312	0.546	0.54	0.403
NCI-H1793	0.328	0.327	0.394	0.413	0.815	0.924	0.964	0.762	0.37	0.36	0.348	0.352	0.495	0.422	0.54	0.478	0.395	0.511	0.344	0.347
NCI-H1915	0.522	0.554	0.523	0.466	1.02	1.08	1.09	0.995	0.308	0.33	0.27	0.267	0.779	0.795	0.772	0.746	0.303	0.321	0.288	0.24
NCI-H1944	0.331	0.392	0.435	0.338	1.14	1.29	1.41	1.22	0.218	0.21	0.221	0.202	1.04	1.09	1.2	1.02	0.426	0.465	0.49	0.409
NCI-H1975	0.427	0.557	0.642	0.537	0.876	0.867	0.99	1.01	0.28	0.355	0.318	0.267	1.18	1.01	1.2	0.915	0.367	0.445	0.469	0.294
NCI-H1993	0.557	0.613	0.779	0.771	0.761	0.763	0.742	0.819	0.684	0.661	0.832	0.603	0.881	1.07	1.25	0.943	0.539	0.506	0.64	0.572
NCI-H2009	0.161	0.225	0.238	0.202	1.11	1.16	1.11	1.1	0.259	0.292	0.297	0.295	1.12	1.07	1.13	1.13	0.284	0.253	0.189	0.165
